Values after ≈ are worked out from the molar mass of the structure shown. Where two headings read alike, the source gives them in different places.
What was measured:
C. albicans = test: Minimal bactericidal concentration (MBC); assay type: cell-based; settings: Candida albicans
Method: (§1) After determining the MIC for the target compounds, the minimal bactericidal concentration (MBC) for each compound that is required to kill each one of the above-mentioned microorganisms was assessed.

A. baumanii = test: Minimal bactericidal concentration (MBC); assay type: cell-based; settings: Acinetobacter baumannii
Method: as §1

S. typhi [1] = test: Biochemical analysis in S. typhi infected rats; assay type: in vivo
Method: The compounds 4h and 4j were dissolved in DMSO (dimethyl sulfoxide) then further dilutions were made by using sterile distilled water. The doses of both candidates were calculated according to the method given by Paget and Barnes[60]. Sterile distilled water, DEMSO, and investigated compounds (4h (1.9 and 3.8 mg/kg) and 4j (1.9 and 3.8 mg/kg)) were injected in a volume of 4 ml/kg[61]. The experiment lasts two weeks, the 1st week for induction of infection in the infected groups and the 2nd week for the administration of the compounds in all groups. […]
ALT and AST were determined[66] using commercial kits obtained from Diamond Diagnostics, Egypt.
Serum urea was determined by using the modified Berthelot–Searcy method. Serum creatinine activity was also assessed by using the application of Jaffe’s reaction.
Serum levels of the pro-inflammatory cytokine, TNF-α, were determined by the quantitative enzyme immunoassay (EIA) kit purchased from R&D Systems (USA) according to the method of Howard and Harada[69], while that of anti-inflammatory cytokine IL-10 was according to Croft et al.. […]

S. typhi [2] = test: Minimal bactericidal concentration (MBC); assay type: cell-based; settings: Salmonella enterica
[3] = system: Acientobacter (A. baumanii) ATCC 19606; test: Agar well diffusion assay; assay type: cell-based; settings: result in words
Method: (§2) The agar well diffusion assay was first done to evaluate the antimicrobial activities of the different target compounds (4a–j) against gram-positive bacteria, gram-negative bacteria, and fungi (Table 1A). […] First, the antibacterial activities were tested against S. aureus ATCC 6538, Acientobacter (A. baumanii) ATCC 19606, S. typhi, E. coli, and P. aeruginosa as examples of the most common gram-positive and gram-negative bacteria, in comparison to vancomycin and ceftriaxone as two reference standards. In addition, the antifungal activities were screened against C. albicans, in comparison to amphotericin as a reference standard. […] The antibacterial activities of some tested compounds (4a, 4b, 4h, and 4e) against gram-positive and gram-negative bacteria by agar well diffusion assay are represented in the supplementary data (Figure SI1).
(§3) A modification of the agar well diffusion method[55] was done to detect the antimicrobial activities of different compounds (4a–j) against gram-positive bacteria, gram-negative bacteria, and fungi. The work was carried out at the Microbiology Department Faculty of Medicine for Girls Al-Azhar University. By visual comparison to 0.5 McFarland turbidity standards, a suspension of each bacterial strain was prepared. The zones of inhibition were measured in cm.

E. coli = test: Agar well diffusion assay; assay type: cell-based; settings: result in words
Method: as §2, §3

C. albicans MTCC183 = test: Minimal inhibitory concentration (MIC), broth dilution; assay type: cell-based
Source text: In vitro evaluation for antifungal activities regarding target compounds (4a–j) as well as reference drug, was done against C. albicans MTCC183 through the zone inhibition technique using well diffusion agar assay in addition to MIC.

S. aureus ATCC 6538 = test: Agar well diffusion assay; assay type: cell-based; settings: result in words
Method: as §2, §3

P. aeruginosa = test: Agar well diffusion assay; assay type: cell-based; settings: result in words
Method: as §2, §3

S. typhi [4] = test: Agar well diffusion assay; assay type: cell-based; settings: result in words
Method: as §2, §3

[5] = first dose (1.9 mg/kg IP daily for one week)
[6] = second dose (3.8 mg/kg IP daily for one week)

## COc1ccc(C(=O)NN=Cc2ccc3ccccc3n2)cc1OC [Compound 4i, N'-(quinolin-2-ylmethylene)-3,4-dimethoxybenzohydrazide]
C. albicans
  MBC: 186 µM (≈ 62.5 µg/mL)
A. baumanii
  MBC: 186 µM (≈ 62.5 µg/mL)
S. typhi [1]; [5]
  renal and liver functions, oxidative stress and inflammatory markers (urea, creatinine, ALT, AST, GSH, MDA, TNF-α, IL-10): normalisation of urea, ALT, and AST
S. typhi [1]; [6]
  renal and liver functions, oxidative stress and inflammatory markers (urea, creatinine, ALT, AST, GSH, MDA, TNF-α, IL-10): returning of urea, creatinine, ALT, and AST
S. typhi [2]
  MBC: 186 µM (≈ 62.5 µg/mL)
[3]
  zones of inhibition (inhibitory activity): most inhibitory activity
E. coli
  zones of inhibition (inhibitory activity): superior inhibitory activity
C. albicans MTCC183; Candida albicans, MTCC183
  MIC: 23.3 µM (≈ 7.81 µg/mL)

## N'-((3a,7a-dihydro-1H-indol-3-yl)methylene)-3,4-dimethoxybenzohydrazide [Compound 4h]
S. typhi [1]; [5]
  renal and liver functions, oxidative stress and inflammatory markers (urea, creatinine, ALT, AST, GSH, MDA, TNF-α, IL-10): significant improvement in all measured parameters
S. typhi [1]; [6]
  renal and liver functions, oxidative stress and inflammatory markers (urea, creatinine, ALT, AST, GSH, MDA, TNF-α, IL-10): returning of urea, creatinine, AST, and TNF-α to normal levels
S. aureus ATCC 6538
  zones of inhibition (inhibitory activity): best activities
P. aeruginosa
  zones of inhibition (inhibitory activity): best activities
S. typhi [4]
  zones of inhibition (inhibitory activity): best activities
C. albicans MTCC183; C. albicans (CA), read-out: MIC
  MIC: 386.80 µM
